Test results as given in paper PMC12892976, “Alkylation-based optimization of antifungal FPPS inhibitors yields a potent, broad-spectrum lipophilic zoledronate derivative” (mBio, 2025).
Converted amounts (≈) assume the structure as drawn.

Tests used:
Saccharomyces cerevisiae [1] = test: MIC/MFC broth microdilution (CLSI); format: cell-based; conditions: Saccharomyces cerevisiae S288c
Experimental: (§1) Antifungal susceptibility was determined by broth microdilution according to the CLSI guidelines described in M27-Ed4 ([16]). […] MFC was determined by back-plating drug-treated cultures from MIC broths onto SDA plates. The MFC was defined as the lowest concentration from which no colonies could be cultured.

Candida albicans [2] = test: MIC/MFC broth microdilution (CLSI); format: cell-based; conditions: Candida albicans SC5314
Experimental: as §1

[3] = system: Cryptococcus deuterogattii; test: checkerboard drug interaction (FICI, MICc); format: cell-based;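 also: simplified diagonal checkerboard screen pairing antifungal drugs with FPPS inhibitors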
Experimental: (§2) Drug interactions between antifungals and FPPS inhibitors were investigated using a simplified checkerboard diagonal screening method ([45]). […] FICIs were determined according to the Loewe additivity model ([17]).

Cryptococcus neoformans [4] = test: checkerboard drug interaction (FICI, MICc); format: cell-based;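 also: antifungal plus FPPS inhibitor pairs tested against Cryptococcus neoformans by simplified diagonal checkerboard screening, FICI computed under the Loewe additivity model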
Experimental: as §2

Saccharomyces cerevisiae [5] = test: checkerboard drug interaction (FICI, MICc); format: cell-based;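 also: simplified diagonal checkerboard screen pairing antifungals with FPPS inhibitors, FICI calculated under the Loewe additivity model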
Experimental: as §2

Candida glabrata [6] = test: checkerboard drug interaction (FICI, MICc); format: cell-based;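 also: simplified diagonal checkerboard screen pairing antifungals with FPPS inhibitors, FICI calculated under the Loewe additivity model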
Experimental: as §2

Candida albicans [7] = test: checkerboard drug interaction (FICI, MICc); format: cell-based;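 also: antifungal plus FPPS inhibitor combinations on Candida albicans tested by a simplified diagonal checkerboard screen, with FICI calculated under the Loewe additivity model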
Experimental: as §2

Aspergillus flavus [8] = test: checkerboard drug interaction (FICI, MICc); format: cell-based;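 also: simplified diagonal checkerboard screen pairing azole antifungals with FPPS inhibitors, FICI calculated under the Loewe additivity model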
Experimental: as §2

Aspergillus fumigatus = test: checkerboard drug interaction (FICI, MICc); format: cell-based;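 also: simplified diagonal checkerboard screen pairing antifungals with FPPS inhibitors against Aspergillus fumigatus, with FICI calculated under the Loewe additivity model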
Experimental: as §2

Trichophyton rubrum [9] = test: checkerboard drug interaction (FICI, MICc); format: cell-based;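 also: simplified diagonal checkerboard screen pairing azole antifungals with FPPS inhibitors, FICI calculated under the Loewe additivity model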
Experimental: as §2

Trichophyton tonsurans = test: checkerboard drug interaction (FICI, MICc); format: cell-based;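 also: simplified diagonal checkerboard screen combining antifungals with FPPS inhibitors, with FICI calculated under the Loewe additivity model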
Experimental: as §2

[10] = system: Cryptococcus deuterogattii; test: MIC/MFC broth microdilution (CLSI);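 also: broth microdilution per CLSI M27-Ed4. MFC is the lowest concentration yielding no colonies when MIC broths are subcultured onto SDA plates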
Experimental: as §1

Cryptococcus neoformans [11] = test: MIC/MFC broth microdilution (CLSI);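 also: susceptibility testing followed the CLSI M27-Ed4 broth microdilution document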
Experimental: as §1

Candida glabrata [12] = test: MIC/MFC broth microdilution (CLSI);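 also: broth microdilution following CLSI M27-Ed4, MFC taken as the lowest drug level yielding no growth once MIC wells were subcultured on SDA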
Experimental: as §1

Aspergillus flavus [13] = test: MIC/MFC broth microdilution (CLSI); conditions: ATCC204304
Experimental: as §1

Trichophyton rubrum [14] = test: MIC/MFC broth microdilution (CLSI)
Experimental: as §1

SMILES: OC(Cn1cncn1)(Cn1cncn1)c1ccc(F)cc1F [FLC, fluconazole]
- MFC (Saccharomyces cerevisiae [1]): 64 µg/mL (≈ 209 µM)
- MIC (Saccharomyces cerevisiae [1]): 4 µg/mL (≈ 13.1 µM)
- MIC / MEC (Saccharomyces cerevisiae [1]): 4 µg/mL (≈ 13.1 µM)
- MFC (Candida albicans [2]): 4 µg/mL (≈ 13.1 µM)
- MIC (Candida albicans [2]): 0.5 µg/mL (≈ 1.63 µM)
- MIC / MEC (Candida albicans [2]): 0.5 µg/mL (≈ 1.63 µM)
- antifungal MICc ([3]; in combination with 10-ZOL): 2
- antifungal MICc ([3]; in combination with ZOL): 4
- antifungal MICc (Cryptococcus neoformans [4]; in combination with 10-ZOL): 2
- antifungal MICc (Cryptococcus neoformans [4]; in combination with ZOL): 4
- antifungal MICc (Saccharomyces cerevisiae [5]; in combination with 10-ZOL): 1
- antifungal MICc (Saccharomyces cerevisiae [5]; in combination with ZOL): 1
- antifungal MICc (Candida glabrata [6]; in combination with 10-ZOL): 1
- antifungal MICc (Candida glabrata [6]; in combination with ZOL): 0.25
- antifungal MICc (Candida albicans [7]; in combination with 10-ZOL): 1
- antifungal MICc (Candida albicans [7]; in combination with ZOL): 2
- antifungal MICc (Aspergillus flavus [8]; in combination with 10-ZOL): 32
- antifungal MICc (Aspergillus flavus [8]; in combination with ZOL): 64
- effective concentration in combination (Aspergillus fumigatus; FLC with 10-ZOL added, A. fumigatus): 8 µg/mL
- antifungal MICc (Aspergillus fumigatus; in combination with 10-ZOL): 8
- antifungal MICc (Aspergillus fumigatus; in combination with ZOL): 64
- antifungal MICc (Trichophyton rubrum [9]; in combination with 10-ZOL): 8
- antifungal MICc (Trichophyton rubrum [9]; in combination with ZOL): 16
- antifungal MICc (Trichophyton tonsurans; in combination with 10-ZOL): 2
- antifungal MICc (Trichophyton tonsurans; in combination with ZOL): 32
- MIC ([10]; Cryptococcus deuterogattii): 2 µg/mL (≈ 6.53 µM)
- MIC / MEC ([10]; Cryptococcus deuterogattii R265): 4 µg/mL (≈ 13.1 µM)
- MIC (Cryptococcus neoformans [11]; Cryptococcus neoformans): 2 µg/mL (≈ 6.53 µM)
- MIC / MEC (Cryptococcus neoformans [11]; Cryptococcus neoformans H99): 4 µg/mL (≈ 13.1 µM)
- MIC / MEC (Candida glabrata [12]; Candida glabrata CBS138 (ATCC 2001)): 4 µg/mL (≈ 13.1 µM)
- MIC (Candida glabrata [12]; Nakaseomyces glabratus, CBS138): 4 µg/mL (≈ 13.1 µM)
- MIC (Aspergillus flavus [13]): 64 µg/mL (≈ 209 µM)
- MIC (Trichophyton rubrum [14]; Trichophyton rubrum): 64 µg/mL (≈ 209 µM)
- MIC / MEC (Trichophyton rubrum [14]; Trichophyton rubrum R-218): 64 µg/mL (≈ 209 µM)
